Experimental findings from patent US20200046648A1, “POLYMERIC NANOPARTICLES COMPRISING SALINOMYCIN” (priority 2018, published 2020) are described below.

Data set [1] concerns CD44+/CD24low cells. Nature of the data set: Flow cytometric identification of cancer stem cells from a TNBC patient. The format is cell-based. The note with it: TNBC patient tumor derived spheroid cultures; 72 hours; FACS. Here is the method: Flow cytometric identification of cancer stem cells (CSCs) by CD24-PE & CD44-FITC antibody staining in triple negative breast cancer (TNBC) patient tumor derived cells cultured as spheroid cultures and then treated with the indicated drugs for72h. Following 72 hours of treatment of the mammospheres, cells were dissociated with Acutase treatment. Following washing, cells were stained with CD24-PE & CD44-FITC antibody, washed and analyzed by FACS. The subpopulation of CD44+/CD24-low cells were gated and quantified.
For orientation: In flow cytometry, cells or beads pass a laser one at a time.

The nature of data set [2]: Preliminary toxicity study, post mortem observations. The note with it: day 7. The format is in vivo, CD2 male mice. The method, then:
(§1) A study was conducted in wild-type CD2 male mice to evaluate and compare the effects of salinomycin (SAL) at three different concentrations and compared to a formulation of SAL in biodegradable tetra-block polymeric nanoparticles.
(§2) MICE 20-25 g male CD2 mice between the ages 6 to 8 weeks from Taconic were used. The animals were acclimatized for five days before initiating the study.
(§3) Animals were injected intravenously either with 5.0 mg/kg, 8.5 mg/kg, or 12.5 mg/kg of SAL or SAL-NPs once, according to Table 1 below. Control animals were treated with PBS.
(§4) Tolerability of the drug by animals was measured via clinical, weight and behavioral changes. The compounds were administered once on day 1. Seven days following administration, all animals were euthanized and blood was collected for a complete blood chemistry and hematology analysis (see Table 2 and 3 below). Post mortem was conducted to examine all of the animals. Different organs (brain, heart, lung, liver, spleen, stomach, intestine, kidney, and skin) were also isolated for histo-pathological evaluation by H & E staining.
On day 7 of the study, a post mortem inspection was conducted on each and every animal. […] There was slight enlargement observed on the fascia around the testis.

Data set [3] in a line: Preliminary toxicity study, histopathology by H & E staining. It is filed as in vivo, CD2 male mice. Here is the method:
as §1, §2, §3, §4
All the animals did well in the study, except the Salinomycin 12.5 mg/kg group. The histopathological studies were conducted on brain, heart, lung, liver, spleen, stomach, intestine, kidney, muscles, and skin tissues by H & E staining. […]

Data set [4] is described as follows: Comparative toxicity in wild-type mice. It is filed as in vivo. Here is the method: The effect of nanoparticles in mitigating the toxicity of salinomycin was examined in wild-type mice. Different doses of salinomycin alone (5, 7.5, 10, 12.5 and 15 mg/kg) or salinomycin-nanoparticles (SAL-NP) (5, 7.5, 10, 12.5 and 15 mg/kg) were injected into wild-type mice. Three mice were used in each group of salinomycin alone and salinomycin-NP groups, body weights, food and water uptake were measured every day for 22 days.

“Also recorded” adds a separate entry of the source.

For the molecule `CC(=O)O[C@H]1C(=O)[C@@]2(C)[C@H]([C@H](OC(=O)c3ccccc3)[C@]3(O)C[C@H](OC(=O)[C@H](O)[C@@H](NC(=O)c4ccccc4)c4ccccc4)C(C)=C1C3(C)C)[C@]1(OC(C)=O)CO[C@@H]1C[C@@H]2O` [Paclitaxel], the “effect on CD44+/CD24low cells” value in data set [1] is “not much effect”.

With `CC[C@@H](C(=O)[C@@H](C)[C@@H](O)[C@H](C)[C@@H]1O[C@@H]([C@@H](CC)C(=O)O)CC[C@@H]1C)[C@H]1O[C@]2(C=C[C@@H](O)[C@]3(CC[C@@](C)([C@H]4CC[C@](O)(CC)[C@H](C)O4)O3)O2)[C@H](C)C[C@@H]1C` [SAL, salinomycin], the Post-mortem findings result is “did not show any observable changes; also recorded: No Changes observed” in data set [2] (5 mg/kg i.v. once); “slightly reddish and slightly enlarged testis; also recorded: testis with redness; also recorded: No Changes observed” in data set [2] (8.5 mg/kg i.v. once); “reddening of the fascia surrounding testis; also recorded: Epidydimus enalrged” in data set [2] (12.5 mg/kg i.v. once). For the same molecule, the “organ toxicity (conclusion)” value in data set [3] (5, 8.5, 12.5 mg/kg i.v. once, day 7) was “toxicity to the liver, kidney, testis, and epididymis”. Moreover, the “microscopical examination of all the tissues” value in data set [3] (mouse, in vivo) is “changes were observed in the kidney, liver, testis and epididymis”. Besides, the survival entry is listed as “five” in data set [4] (10 mg/kg) and “three” in data set [4] (12.5 mg/kg). The “survival (day of the study)” value in data set [4] (15 mg/kg) is “died after day 3”.
